In PubChem BioAssay (NCI):
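Five compound concentrations were applied to cells in 96-well plates for 48 hours; endpoints were derived by simple linear interpolation of the resulting dose-response curve. Definition used: TGI = concentration required for complete inhibition of growth.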

Key:
Experiment in all cases: growth of human tumour cells (NCI), 48 h
K-562 leukemia = tested on: K-562 leukemia
UACC-62 melanoma = tested on: UACC-62 melanoma
HT29 colon = tested on: HT29 colon
OVCAR-8 ovarian = tested on: OVCAR-8 ovarian
SK-MEL-5 melanoma = tested on: SK-MEL-5 melanoma
SF-295 CNS = tested on: SF-295 CNS
PC-3 prostate = tested on: PC-3 prostate
MDA-MB-435 = tested on: MDA-MB-435
OVCAR-3 ovarian = tested on: OVCAR-3 ovarian
HCT-15 colon = tested on: HCT-15 colon
A549 NSCLC = tested on: A549 NSCLC
HOP-62 NSCLC = tested on: HOP-62 NSCLC
CAKI-1 renal = tested on: CAKI-1 renal
HS 578T breast = tested on: HS 578T breast
HCT-116 colon = tested on: HCT-116 colon
SF-539 CNS = tested on: SF-539 CNS
SW-620 colon = tested on: SW-620 colon
SF-268 CNS = tested on: SF-268 CNS

Structure (SMILES)	TGI (K-562 leukemia)	TGI (UACC-62 melanoma)	TGI (HT29 colon)	TGI (OVCAR-8 ovarian)	TGI (SK-MEL-5 melanoma)	TGI (SF-295 CNS)	TGI (PC-3 prostate)	TGI (MDA-MB-435)	TGI (OVCAR-3 ovarian)	TGI (HCT-15 colon)	TGI (A549 NSCLC)	TGI (HOP-62 NSCLC)	TGI (CAKI-1 renal)	TGI (HS 578T breast)	TGI (HCT-116 colon)	TGI (SF-539 CNS)	TGI (SW-620 colon)	TGI (SF-268 CNS)
O=C(N/C(=C/c1ccc(Cl)cc1)c1nc2ccccc2c(=O)n1Nc1ccc([N+](=O)[O-])cc1[N+](=O)[O-])c1ccccc1	> 100 µM	> 100 µM	> 100 µM	> 100 µM	> 100 µM	> 100 µM	> 100 µM	> 100 µM	> 100 µM	> 100 µM	> 100 µM	> 100 µM	> 100 µM	> 100 µM	> 100 µM	> 100 µM	> 100 µM	
COC(=O)CCc1ccc2c(c1)CC1(C2)Cc2ccc3c(c2C1)CCC3 (centres undefined)	> 100 µM	> 100 µM	> 100 µM	> 100 µM	90.9 µM	> 100 µM	> 100 µM	> 100 µM	> 100 µM	> 100 µM	> 100 µM	> 100 µM		> 100 µM	> 100 µM	> 100 µM	> 100 µM	> 100 µM
CCOC(=O)CC(N1CC1)N1CC1	> 10 µM	> 10 µM	> 10 µM		> 10 µM	> 10 µM	> 10 µM	> 10 µM	> 10 µM	> 10 µM	> 10 µM	> 10 µM	> 10 µM	> 10 µM	> 10 µM	> 10 µM	> 10 µM	> 10 µM
Cc1cc(C)c2c(c1)C(=O)C1(C2)Cc2c(ccc(C)c2C)C1=O (centres undefined)	> 100 µM	> 100 µM		> 100 µM	> 100 µM	> 100 µM	> 100 µM	> 100 µM	> 100 µM	> 100 µM	> 100 µM		> 100 µM	> 100 µM	> 100 µM	> 100 µM	> 100 µM	> 100 µM
O=c1cc(-c2ccccc2Cl)[nH]c2cc3c(cc12)OCO3		15.7 µM	1.46 µM	9.88 µM	2.03 µM	3.03 µM	> 100 µM	0.0313 µM	0.4 µM	0.355 µM	> 16.7 µM	11.3 µM	39.9 µM	4.06 µM	16 µM	0.458 µM	> 100 µM	> 58.9 µM
CC1(C)O[C@@H](CP(c2ccccc2)c2ccccc2)[C@H](CP(c2ccccc2)c2ccccc2)O1			47.7 µM	20.5 µM	19.4 µM	57.7 µM		52.4 µM	33.6 µM	44.5 µM	85.7 µM	44.6 µM	> 100 µM		20.9 µM	21.1 µM	38.3 µM	25.3 µM
CC1CC(NN(C)C)C2(C(N)=O)C(N)=NC(=O)C12C#N (centres undefined)	> 100 µM	> 100 µM	> 100 µM	> 100 µM	> 100 µM	> 100 µM	> 100 µM	> 100 µM		> 100 µM	> 100 µM	> 100 µM	> 100 µM	> 100 µM	> 100 µM	> 100 µM	> 100 µM	> 100 µM
CC(=O)NNc1nc(C)c(C(/C=C/c2ccc(NC(C)=O)cc2)=N/NS(=O)(=O)c2ccc(C)cc2)s1		> 100 µM	> 100 µM	> 100 µM	> 100 µM	> 100 µM	> 100 µM	> 100 µM	> 100 µM	> 100 µM	> 100 µM	> 100 µM	> 100 µM	> 100 µM	> 100 µM	> 100 µM	> 100 µM	> 100 µM
O=C1CSC(/C=C/c2ccccc2)N1c1ccc(-n2c(-c3ccccc3)nc3ccccc3c2=O)cc1 (centres undefined)	> 100 µM	> 100 µM	> 100 µM	> 100 µM	> 100 µM	> 100 µM	> 100 µM	> 100 µM	> 100 µM	> 100 µM	> 100 µM	> 100 µM	> 100 µM	> 100 µM	> 100 µM	> 100 µM		> 100 µM
Nc1cnc2c(c1)c(=O)nc1n2CCS1	> 100 µM	> 100 µM	> 100 µM	> 100 µM	> 100 µM	> 100 µM	> 100 µM	> 100 µM	> 100 µM	> 100 µM	> 100 µM	> 100 µM	> 100 µM		> 100 µM	> 100 µM	> 100 µM	> 100 µM
NC(=O)C(=CN1CC(=O)NC1=S)C(N)=O		> 100 µM	> 100 µM	> 100 µM	> 100 µM	> 100 µM		> 100 µM	> 100 µM	> 100 µM	> 100 µM	> 100 µM	> 100 µM		> 100 µM	> 100 µM	> 100 µM	> 100 µM
COc1ccc(C(=O)c2ccc(-n3c4ccccc4c4ccc5c(c43)C(=O)C=CC5=O)cc2)cc1	> 100 µM	8.02 µM	3.65 µM		12.9 µM	17.1 µM	3.3 µM	3.14 µM	2.68 µM	6.07 µM	10.8 µM	28.7 µM	0.366 µM	4.51 µM	2.77 µM	5.78 µM		2.33 µM
COC(=O)/C(=C\C(=O)c1ccc(Br)cc1)NN=C(c1ccccc1)c1ccccc1	> 10 µM	> 10 µM	> 10 µM	> 10 µM	> 10 µM	> 10 µM	> 10 µM	> 10 µM		> 10 µM	> 10 µM	> 10 µM	> 10 µM				> 10 µM	> 10 µM
Cc1cc2c(=O)[nH]nc(N)c2c(N)n1	> 100 µM	> 100 µM	> 100 µM	> 100 µM	> 100 µM	> 100 µM	> 100 µM	> 100 µM		> 100 µM	> 100 µM	> 100 µM	> 100 µM	> 100 µM	> 100 µM		> 100 µM	> 100 µM
O=C(NC/C(Cl)=C/Cl)Nc1cccc2c1CCCC2		> 100 µM	> 100 µM	> 100 µM	> 100 µM	> 100 µM	> 100 µM	> 100 µM	> 100 µM	> 100 µM	> 100 µM	> 100 µM	> 100 µM	> 100 µM	> 100 µM	> 100 µM	> 100 µM	> 100 µM
CC(C)(C)OC(=O)N/N=C(/N)c1ccccc1	> 100 µM	> 100 µM	> 100 µM	> 100 µM	> 100 µM	> 100 µM	> 100 µM	> 100 µM	> 100 µM	> 100 µM	> 100 µM	> 100 µM	> 100 µM		> 100 µM	> 100 µM		> 100 µM
O=C(O)c1cc(N(Cc2ccccc2O)Cc2cc(O)ccc2O)ccc1O	> 100 µM	> 100 µM	> 100 µM	> 100 µM	> 100 µM	> 100 µM	> 100 µM	> 100 µM	> 100 µM	> 100 µM	> 100 µM	> 100 µM		> 100 µM	> 100 µM	> 100 µM	> 100 µM	> 100 µM
Cc1cc(C)c(NS(=O)c2cccc([N+](=O)[O-])c2)c(C)c1 (centres undefined)	> 100 µM		> 100 µM	> 100 µM		> 100 µM	> 100 µM	> 100 µM	> 100 µM	> 100 µM	> 100 µM	> 100 µM				> 100 µM	> 100 µM	> 100 µM
CC1C(=O)C23OC[C@@]1(C)C1(O)CC[C@@H](C)[C@]21CC3=O (some centres undefined)	> 100 µM	> 100 µM	> 100 µM	> 100 µM	> 100 µM	> 100 µM	> 100 µM	> 100 µM	> 100 µM	> 100 µM	> 100 µM	> 100 µM		> 100 µM	> 100 µM	> 100 µM	> 100 µM	> 100 µM
COc1ccccc1OC(=O)/C=C/c1ccccc1		> 100 µM	> 100 µM	> 100 µM	> 100 µM	> 100 µM	> 100 µM	> 100 µM	> 100 µM	> 100 µM	> 100 µM	> 100 µM	> 100 µM	> 100 µM	> 100 µM	> 100 µM	> 100 µM	> 100 µM
Cc1ccccc1NC(=O)C(=O)Cc1cnc2ccccc2n1	> 100 µM	> 100 µM	> 100 µM	> 100 µM	> 100 µM	> 100 µM	> 100 µM	> 100 µM	> 100 µM	> 100 µM	> 100 µM		> 100 µM	> 100 µM	> 100 µM	> 100 µM	> 100 µM	> 100 µM
O=C1/C(=C\c2c(-c3ccccc3)nn(-c3ccccc3)c2O)C(c2ccccc2)=NN1c1ccccc1	> 100 µM	> 100 µM	> 100 µM	> 100 µM		> 100 µM	> 100 µM	> 100 µM	> 100 µM	> 100 µM	> 100 µM	> 100 µM	> 100 µM	> 100 µM	> 100 µM	> 100 µM	> 100 µM	> 100 µM
COc1ccc2c(c1)CC[C@@H]1[C@@H]2CC[C@]2(C)[C@@H](O)/C(=C/c3ccncc3)C[C@@H]12		29.6 µM	15 µM	28.2 µM	21.4 µM	29.4 µM	25.5 µM	27.3 µM	39.3 µM	23.6 µM	41.1 µM	37.3 µM	34.2 µM	32 µM	30 µM		24.8 µM	28.2 µM
NCCc1ccc2c(c1)C(=O)c1c(O)ccc(O)c1C2=O	> 64.2 µM	39.7 µM		9.19 µM	3.94 µM	> 74.9 µM	26.1 µM	> 100 µM	5.66 µM	> 100 µM	> 45.4 µM	13.4 µM	> 84.3 µM	> 100 µM	> 40.3 µM	7.97 µM	> 100 µM	25.3 µM
CCOC(=O)CCC(NC(=O)c1ccc(Oc2nc3ccccc3nc2C(=O)OCC)cc1)C(=O)OCC (centres undefined)		> 100 µM	> 100 µM	> 100 µM	> 100 µM	> 100 µM	> 100 µM	> 100 µM	> 100 µM	> 100 µM	> 100 µM	> 100 µM	> 100 µM	> 100 µM	> 100 µM	> 100 µM	> 100 µM	> 100 µM
CN(NC(=O)c1cccs1)C1=NCCN1	> 100 µM	> 100 µM	> 100 µM	> 100 µM	> 100 µM	> 100 µM	> 100 µM	> 100 µM	> 100 µM	> 100 µM	> 100 µM	> 100 µM		> 100 µM	> 100 µM	> 100 µM	> 100 µM	> 100 µM
CC(=O)O/C=C\OC1CCCC1	> 100 µM	> 100 µM	> 100 µM	> 100 µM	> 100 µM	> 100 µM	> 100 µM	> 100 µM	> 100 µM	> 100 µM	> 100 µM	> 100 µM	> 100 µM	> 100 µM		> 100 µM	> 100 µM	> 100 µM
Cc1cc(Br)cc(C)c1NC(=O)C(=O)C1C(=O)C(CC2C(=O)c3ccccc3C2=O)C(=O)CC1(C)C (centres undefined)		> 100 µM	> 100 µM	> 100 µM	> 100 µM	> 100 µM	> 100 µM	> 100 µM	> 100 µM	> 100 µM	> 100 µM	> 100 µM	> 100 µM	> 100 µM	> 100 µM	> 100 µM	> 100 µM	> 100 µM
